Results from patent US6627650B2, “Indenoindolone compounds” (Les Laboratoires Servier, priority 2001, dated 2003).
Where a name gives a salt, the structure may show the parent alone. Read-outs that look alike come from different tables or passages of the source.

Key:
A549 = assay: In vitro cytotoxicity, microculture tetrazolium assay, A549; format: cell-based, human; conditions: read-out: IC50 A549
Procedure: (§1) Five cell lines were used:
1 non-small-cell human lung carcinoma, A549.
(§2) The cells are cultured in RPMI 1640 complete culture medium comprising 10% fetal calf serum, 2 mM glutamine, 50 units/ml of penicillin, 50 μg/ml of streptomycin and 10 mM Hepes, pH 7.4. The cells are distributed on microplates and are exposed to the cytotoxic compounds. The cells are then incubated for four doubling periods (2 days: L1210, P388, or 4 days: A549, HT29, A-431). The number of viable cells is then quantified by a colorimetric assay, the microculture tetrazolium assay (Cancer Res. 1987, 47 939-942).
(§3) The results are expressed as IC50, the concentration of product that inhibits the proliferation of the treated cells by 50% compared with the untreated cells.

L1210 cells = assay: Action on the cell cycle (L1210), flow cytometry; format: cell-based, murine; conditions: concentration 0.25 μM, after 21 hours (control: 20%)
Procedure: L1210 cells are incubated for 21 hours at 37° C. in the presence of various concentrations of compound tested. The cells are then fixed using 70% ethanol (v/v), washed twice in PBS and incubated for 30 minutes at 20° C. in PBS that contains 100 μg/ml of RNAse and 50 μg/ml of propidium iodide. The distribution of the cells in the various phases of the cell cycle are then analysed by flow cytometry. The results are expressed as a percentage of the cells that have accumulated in the G2+M phase after 21 hours compared with the control (control: 20%). By way of example, at a concentration of 0.25 μM the compounds of Examples 1 and 18 induce a 75% accumulation of the cells in the G2+M phase after 21 hours.

A-431 = assay: In vitro cytotoxicity, microculture tetrazolium assay, A-431; format: cell-based, human; conditions: read-out: IC50 A-431
Procedure: as §1
1 human epidermoid carcinoma, A-431.
as §2, §3

HT29 = assay: In vitro cytotoxicity, microculture tetrazolium assay, HT29; format: cell-based, human; conditions: HT-29, 96 h, read-out: IC50 HT29
Procedure: as §1
1 human colon carcinoma, HT29.
as §2, §3

L1210 = assay: In vitro cytotoxicity, microculture tetrazolium assay, L1210; format: cell-based; conditions: Mus musculus, 48 h; L1210 murine leukaemia, 2 days incubation, inhibition of proliferation
Procedure: as §1, §2, §3

C38 colon carcinoma = assay: In vivo anti-tumour activity on established C38 colon carcinoma; conditions: from a dose of 25 mg/kg, i.v. once a week for 3 weeks (days 10, 17 and 24), B6D2F1 mice, subcutaneous C38
Procedure: Fragments of C38 colon carcinoma weighing approximately 30 mg were grafted subcutaneously on day 0 onto B6D2F1 mice (Iffa Credo, France). After growth of the tumour, the mice were separated into control (18 animals) and treated (6 to 7 animals) groups, which were homogeneous in respect of the tumour size. The products were administered by the i.v. route once a week for 3 weeks (on days 10, 17 and 24) at their maximum tolerated dose (MTD), MTD/2 and MTD/4.
The tumours were measured twice per week and the tumour volumes were calculated according to the formula: volume (mm^3)=length (mm)×width^2 (mm^2)/2.
The anti-tumour activity is expressed as % T/C: [formula]
VO and Vt denoting, respectively, the initial volume of the tumour and its volume at the time of measurement t.
The optimum dose is the dose that yields the lowest T/C without toxicity (premature death or loss of weight greater than 20%).

P388 = assay: In vitro cytotoxicity, microculture tetrazolium assay, P388; format: cell-based; conditions: Mus musculus, 48 h; P388 murine leukaemia, 2 days incubation, inhibition of proliferation
Procedure: as §1, §2, §3

Structure (SMILES)	IC50 (A549; Homo sapiens, A549, 96 h)	accumulation of the cells in the G2+M phase (L1210 cells)	IC50 (A-431; Homo sapiens, A-431, 96 h)	IC50 (HT29; Homo sapiens)	IC50 (A549; 96 h, A549 non-small-cell human lung carcinoma, 4 days incubation)	IC50 (L1210)	IC50 (A-431; 96 h, A-431 human epidermoid carcinoma, 4 days incubation)	T/C (tumour volume) (C38 colon carcinoma)	IC50 (HT29; HT29 human colon carcinoma, 4 days incubation)	IC50 (P388)
C#CC(O/N=C1/c2cc(OC)c(OC)cc2-c2[nH]c3ccc(OCCN(C)C)cc3c21)c1ccccc1 (centres unmarked) [Example 1, (10Z)-8-(2-Dimethylaminoethoxy)-2,3-dimethoxyindeno[1,2-b]indole-10(5H)-one O-(1-Phenyl-2-Propynyl)oxime Hydrochloride]	0.071 µM	75%	0.087 µM	0.248 µM						
C#CCO/N=C1/c2cc(OC)c(OC)cc2-c2[nH]c3ccc(OCCN(C)C)cc3c21.Cl [Example 18, (10Z)-8-(2-Dimethylaminoethoxy)-2,3-dimethoxyindeno[1,2-b]indole-10(5H)-one O-(2-Propynyl)oxime Hydrochloride]		75%			0.101 µM	0.104 µM	0.174 µM	24%	0.181 µM	0.241 µM
